Test in data set [1]: not given
The source holds these as a separate data set.

Test in data set [2]: not given
The source holds these as a separate data set.

Test in data set [3]: not given
The source holds these as a separate data set.

Non-standard residues stand in square brackets, D forms with d. Residues, ends and D or L forms follow the SMILES beside them.

For the compound `CC(C)C[C@@H](NC(=O)[C@@H](Cc1c[nH]c2ccccc12)NC(=O)[C@@H](CCCNC(=N)N)NC(=O)[C@@H](C)NC(=O)[C@@H](CC(C)C)NC(=O)[C@@H](Cc1c[nH]c2ccccc12)NC(=O)[C@@H](CCCNC(=N)N)NC(=O)[C@@H](CC(C)C)NC(=O)[C@@H](CC(C)C)NC(=O)[C@@H](CCCNC(=N)N)NC(=O)[C@@H](CO)NC(=O)[C@@H](CC(C)C)NC(=O)[C@@H](Cc1c[nH]c2ccccc12)NC(=O)[C@@H](CCCNC(=N)N)NC(=O)[C@@H](CC(C)C)NC(=O)[C@@H](CC(C)C)NC(=O)[C@@H](Cc1c[nH]c2ccccc12)NC(=O)[C@H](N)CCCCN)C(=O)NCC(=O)O` (H-[dK][dW][dL][dL][dR][dW][dL][dS][dR][dL][dL][dR][dW][dL][dA][dR][dW][dL]G-OH), the Tryptophan fluorescence emission maximum with siRNA worked out at 340 nm. In data set [1], the Tryptophan fluorescence emission maximum, free peptide was 345 nm. The Blue shift of tryptophan fluorescence with excess liposomes in data set [2] amounted to 10 nm.
For H-GLWRALWRLLRSLWRLLWK-OH, the Tryptophan fluorescence emission maximum with siRNA was determined as 340 nm. The same compound yielded a Tryptophan fluorescence emission maximum, free peptide in data set [1] of 348 nm.
Compound `CC(C)C[C@@H](NC(=O)CN)C(=O)N[C@H](Cc1c[nH]c2ccccc12)C(=O)N[C@H](CCCNC(=N)N)C(=O)N[C@H](C)C(=O)N[C@H](CC(C)C)C(=O)N[C@H](Cc1c[nH]c2ccccc12)C(=O)N[C@H](CCCNC(=N)N)C(=O)N[C@H](CC(C)C)C(=O)N[C@H](CC(C)C)C(=O)N[C@H](CCCNC(=N)N)C(=O)N[C@H](CO)C(=O)N[C@H](CC(C)C)C(=O)N[C@H](Cc1c[nH]c2ccccc12)C(=O)N[C@H](CCCNC(=N)N)C(=O)N[C@H](CC(C)C)C(=O)N[C@H](CC(C)C)C(=O)N[C@H](Cc1c[nH]c2ccccc12)C(=O)N[C@H](CCCCN)C(=O)O` (H-G[dL][dW][dR][dA][dL][dW][dR][dL][dL][dR][dS][dL][dW][dR][dL][dL][dW][dK]-OH) registered a Mean size (nm) at 0 h, Nb (%) in data set [3] of 30 nm.

The values above are taken from paper PMC5410048, “A retro-inverso cell-penetrating peptide for siRNA delivery” (Journal of Nanobiotechnology, 2017).
